Assay results reported in ChEMBL document CHEMBL2331167, “Inhibitory effect of novel somatostatin peptide analogues on human cancer cell growth based on the selective inhibition of DNA polymerase β” (Bioorg Med Chem, 2013).
Activity calls are given as the source filed them. No cut-off for these calls is given here.

Legend:
HCT-116 [1] = test: Cytotoxicity against p53 +/+ human HCT116 cells assessed as growth inhibition at 200 uM incubated for 24 hrs by WST-1 assay; type: functional, cell-based
HCT-116 [2] = test: Cytotoxicity against p53 -/- human HCT116 cells assessed as growth inhibition at 200 uM incubated for 24 hrs by WST-1 assay; type: functional, cell-based
HCT-116 [3] = test: Cytotoxicity against p53 +/+ human HCT116 cells assessed as growth inhibition incubated for 24 hrs by WST-1 assay; type: functional; conditions: HCT-116, 24 h, read-out: LD50 (the source's name)

Compound	growth inhibition (GI) (HCT-116 [1])	growth inhibition (GI) (HCT-116 [2])	CC50 (HCT-116 [3]) [µM]
CC(C)C[C@H](NC(=O)[C@H](Cc1ccc(O)cc1)NC(=O)OC(C)(C)C)C(=O)Nc1cccc2ccccc12	Active	Active	–
CC(C)(C)OC(=O)N[C@@H](Cc1ccc(O)cc1)C(=O)N[C@@H](CCC(=O)O)C(=O)Nc1cccc2ccccc12	inactive	inactive	–
CC(C)(C)OC(=O)NCCC(=O)Nc1cccc2ccccc12	inactive	inactive	–
CC(C)(C)OC(=O)NCCCCC(=O)Nc1cccc2ccccc12	inactive	inactive	–
CC(C)(C)OC(=O)N[C@@H](Cc1ccc(O)cc1)C(=O)N[C@@H](Cc1ccccc1)C(=O)Nc1cccc2ccccc12	Active	Active	30.7
CC(C)(C)OC(=O)N[C@@H](Cc1ccc(O)cc1)C(=O)N[C@@H](CC(=O)O)C(=O)Nc1cccc2ccccc12	inactive	inactive	–
CC(C)[C@H](NC(=O)[C@H](Cc1ccc(O)cc1)NC(=O)OC(C)(C)C)C(=O)Nc1cccc2ccccc12	Active	Active	–
CC(C)(C)OC(=O)NCCCCCCC(=O)Nc1cccc2ccccc12	inactive	inactive	–
